Measurements published in ChEMBL document CHEMBL1201862, “PubChem BioAssay data set” (2004).
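48-hour exposure; five concentrations; linearly interpolated endpoints. The concentration for 50% growth inhibition is given as GI50.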 Activity calls are given as the source filed them. No stated cut-off is given here; in the data, active = GI50 up to about 1.1 µM and inactive = higher.

How the values were obtained:
Assay in all cases: NCI-60 cell line screen, 48 h
M14 = test system: M14
SNB-75 = test system: SNB-75
UACC-257 = test system: UACC-257
A549 = test system: A549
HCT-15 = test system: HCT-15
CAKI-1 = test system: CAKI-1
HCC 2998 = test system: HCC 2998
OVCAR-5 = test system: OVCAR-5
A498 = test system: A498
SK-OV-3 = test system: SK-OV-3
OVCAR-4 = test system: OVCAR-4
EKVX = test system: EKVX
786-0 = test system: 786-0
HL-60 = test system: HL-60
U-251 = test system: U-251
SK-MEL-2 = test system: SK-MEL-2
PC-3 = test system: PC-3
DU-145 = test system: DU-145
MDA-MB-435 = test system: MDA-MB-435

| SMILES | GI50 (M14) | GI50 (SNB-75) | GI50 (UACC-257) | GI50 (A549) | GI50 (HCT-15) [µM] | GI50 (CAKI-1) | GI50 (HCC 2998) | GI50 (OVCAR-5) | GI50 (A498) | GI50 (SK-OV-3) | GI50 (OVCAR-4) | GI50 (EKVX) | GI50 (786-0) | GI50 (HL-60) | GI50 (U-251) | GI50 (SK-MEL-2) | GI50 (PC-3) | GI50 (DU-145) | GI50 (MDA-MB-435) |
| --- | --- | --- | --- | --- | --- | --- | --- | --- | --- | --- | --- | --- | --- | --- | --- | --- | --- | --- | --- |
| O=C(O)c1cc2c3ccccc3nc-2c[nH]1 | > 100 µM (inactive) | > 100 µM (inactive) | > 100 µM (inactive) | > 100 µM (inactive) | > 100 | > 100 µM (inactive) | > 100 µM (inactive) | > 100 µM (inactive) | 10 µM (inactive) | > 100 µM (inactive) | > 100 µM (inactive) | > 100 µM (inactive) | > 100 µM (inactive) | > 100 µM (inactive) | > 100 µM (inactive) | – | – | – | – |
| O=C1OC(=O)C2C1C1C(c3ccccc3)=C(c3ccccc3)C2(O)C2C(=O)OC(=O)C12 (configuration not stated) | > 100 µM (inactive) | 27.9 µM (inactive) | > 100 µM (inactive) | > 100 µM (inactive) | > 100 | > 100 µM (inactive) | > 100 µM (inactive) | > 100 µM (inactive) | > 100 µM (inactive) | > 100 µM (inactive) | > 100 µM (inactive) | > 100 µM (inactive) | 92.3 µM (inactive) | > 10 µM (inactive) | 52.1 µM (inactive) | > 100 µM (inactive) | – | – | – |
| Cc1cc2c(cc1C)[n+]([O-])c(C(=O)CC(=O)C(=O)Nc1ccccc1C)c(C)[n+]2[O-] | > 100 µM (inactive) | > 100 µM (inactive) | > 100 µM (inactive) | 56.2 µM (inactive) | > 100 | > 100 µM (inactive) | > 100 µM (inactive) | > 100 µM (inactive) | > 100 µM (inactive) | > 100 µM (inactive) | > 100 µM (inactive) | 33.8 µM (inactive) | > 100 µM (inactive) | 62.8 µM (inactive) | > 100 µM (inactive) | > 100 µM (inactive) | – | – | – |
| O=C1C[C@@H]2[C@@H](CCC23CCCC3)N1 | > 100 µM (inactive) | > 100 µM (inactive) | > 100 µM (inactive) | > 100 µM (inactive) | > 100 | > 100 µM (inactive) | > 100 µM (inactive) | > 100 µM (inactive) | > 100 µM (inactive) | > 100 µM (inactive) | > 100 µM (inactive) | > 100 µM (inactive) | > 100 µM (inactive) | > 100 µM (inactive) | > 100 µM (inactive) | > 100 µM (inactive) | – | – | – |
| CCOc1ccc(Nc2nc(C)c(C(=O)/C=C/c3ccc(Cl)cc3Cl)s2)cc1 | 23.9 µM (inactive) | 18.5 µM (inactive) | 24.6 µM (inactive) | 23.2 µM (inactive) | 22.2 | 27.1 µM (inactive) | 23.9 µM (inactive) | 40.8 µM (inactive) | 22.8 µM (inactive) | 28.6 µM (inactive) | 10.8 µM (inactive) | 31.1 µM (inactive) | 19.5 µM (inactive) | 27.2 µM (inactive) | 19.8 µM (inactive) | 24 µM (inactive) | – | – | – |
| Cc1c(C)n(COCCO)c2ncnc(N)c12 | > 100 µM (inactive) | > 100 µM (inactive) | – | > 100 µM (inactive) | > 100 | > 100 µM (inactive) | > 100 µM (inactive) | – | > 100 µM (inactive) | > 100 µM (inactive) | > 100 µM (inactive) | > 100 µM (inactive) | > 100 µM (inactive) | > 100 µM (inactive) | > 100 µM (inactive) | > 100 µM (inactive) | – | – | – |
| CC(=O)/C(=C\n1c(=S)[nH]c2ccc([N+](=O)[O-])cc21)C(=O)Nc1ccccc1C | > 100 µM (inactive) | – | > 100 µM (inactive) | > 100 µM (inactive) | > 100 | > 100 µM (inactive) | > 100 µM (inactive) | > 100 µM (inactive) | 96.8 µM (inactive) | > 100 µM (inactive) | > 100 µM (inactive) | > 100 µM (inactive) | > 100 µM (inactive) | > 100 µM (inactive) | > 100 µM (inactive) | > 100 µM (inactive) | > 100 µM (inactive) | > 100 µM (inactive) | > 100 µM (inactive) |
| CCOc1ccc2c(c1)[n+]([O-])c(-c1ccc(Br)cc1)c(N)[n+]2[O-] | 49 µM (inactive) | > 100 µM (inactive) | 59.4 µM (inactive) | 59.6 µM (inactive) | 47 | 27.2 µM (inactive) | > 100 µM (inactive) | > 100 µM (inactive) | 45.3 µM (inactive) | > 100 µM (inactive) | > 100 µM (inactive) | 52.8 µM (inactive) | > 100 µM (inactive) | 31.3 µM (inactive) | 47.3 µM (inactive) | > 100 µM (inactive) | – | – | – |
